This passage reports drug sensitivity score results from the supplement of paper PMC11616607.

The subject of one test is JHOS2. Description: drug sensitivity score (DSS) from 5-point dose-response viability curve (DSS (area-under-curve based score)); higher = more sensitive (stronger growth inhibition or killing); extreme values may be limits of the assay. Particulars: exposure time: 72 h; concentration range: 5 concentrations over 10,000-fold range. An outline of the steps: (§1)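 For the drug sensitivity score, obtained per cell line and drug in Breeze software, larger values mean greater sensitivity. No response corresponds to a score of zero. Ovarian cancer and normal ovarian cells were seeded at 1,500 per well into 384-well plates already holding acoustically dispensed drugs (Echo 550, DMSO or water, five concentrations over a 10,000-fold range) and incubated 3 days at 37°C, 5% CO2. CellTiter-Glo luminescence on a PHERAstar FS gave the viability readout.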
Turning to `CC(C)[C@H](C(=O)Nc1ccc(C(=O)NO)cc1)c1ccccc1` [AR-42], the drug sensitivity score worked out at 7.8.

The compound `Cc1sc2c(c1C)C(c1ccc(Cl)cc1)=N[C@@H](CC(=O)Nc1ccc(OCCOCCOCCOCCNc3cccc4c3C(=O)N(C3CCC(=O)NC3=O)C4=O)cc1)c1nnc(C)n1-2` (some centres not stated) [ARV-825] displayed a drug sensitivity score of 4.6.

`COc1cc(N2CCC(N3CCN(C)CC3)CC2)ccc1Nc1ncnc(Nc2ccccc2S(=O)(=O)C(C)C)n1` [ASP3026]: the drug sensitivity score came to 4.1.

The compound `O=C(NC1CCNCC1)c1n[nH]cc1NC(=O)c1c(Cl)cccc1Cl` [AT7519] had a drug sensitivity score of 18.

Take `O=C(Nc1c[nH]nc1-c1nc2ccc(CN3CCOCC3)cc2[nH]1)NC1CC1` [AT9283]: the drug sensitivity score worked out at 3.5.

In turn, `CC[C@H](CC#N)OC(=O)N[C@@H](C)c1cccc(NC(=O)Nc2ccc(-c3cnco3)c(OC)c2)c1` [AVN944] yielded a drug sensitivity score of 9.6.

As for `COc1cc(N2CCN(C)CC2)ccc1Nc1nccc(-c2cn(C)c3cnccc23)n1` [AZ191], the drug sensitivity score was determined as 4.4.

The compound `COc1cc(OC2CCN(C)CC2)ccc1Nc1ncc2c(n1)n(C1CCCC1)c(=O)n2C` [AZ 3146] had a drug sensitivity score of 2.3.

Compound `CN(C)CCCOc1ccc(-c2ccc3ncc4c(c3c2)n(C2CCOCC2)c(=O)n4C)cn1` [AZD0156] gave a drug sensitivity score of 0.

In the case of `N[C@@H]1CCCN(c2c(/C=C3\SC(=O)NC3=O)cccc2-c2ccccc2)C1` [AZD1208], the drug sensitivity score was found to be 0.3.

`Cc1cc(Nc2nc(N[C@@H](C)c3ncc(F)cn3)ncc2Cl)[nH]n1` [AZD1480] displayed a drug sensitivity score of 0.

Compound `COc1cc2ncnc(Nc3cccc(Cl)c3F)c2cc1OC(=O)N1CCN(C)C[C@H]1C` [AZD3759] gave a drug sensitivity score of 0.2.

With `Cc1[nH]nc(C(F)(F)F)c1Cc1sc2c(c1C(=O)N1C[C@](C)(O)CO1)c(=O)n(C)c(=O)n2C(C)C` [AZD3965], the drug sensitivity score is 0.

As to `COc1cc(CCc2cc(NC(=O)c3ccc(N4CC(C)NC(C)C4)cc3)n[nH]2)cc(OC)c1` (configuration not stated) [AZD4547], the drug sensitivity score came out at 0.

In turn, `CN(C)C(=O)c1ccc(S(=O)(=O)c2ccc(NC(=O)[C@@](C)(O)C(F)(F)F)c(Cl)c2)cc1` [AZD7545] came in with a drug sensitivity score of 0.

Turning to `NC(=O)Nc1cc(-c2cccc(F)c2)sc1C(=O)N[C@H]1CCCNC1` [AZD7762], the drug sensitivity score turned out to be 1.9.

In another test the test system is OV90. Described as above. Particulars: exposure time: 72 h; concentration range: 5 concentrations over 10,000-fold range. The gist of the method:
as §1
For `CCOc1ccn(-c2ccc(F)cc2)c(=O)c1C(=O)Nc1ccc(Oc2ccnc(N)c2Cl)c(F)c1`, the drug sensitivity score turned out to be 0.

The compound `CCn1c(C(=O)N(C2CC2)C2CC2)cc2c3c(ncn3C)c(Nc3cc(C)n(C)n3)nc21` showed a drug sensitivity score of 0.5.

For `C[C@@]1(C(=O)Nc2ccc(F)nc2)CCCN1c1nc(Nc2cc(C3CC3)n[nH]2)c2cccn2n1`, the drug sensitivity score was determined as 7.4.

`Cc1c(-c2ccc(N3CCc4cccc(C(=O)Nc5nc6ccccc6s5)c4C3)nc2C(=O)O)cnn1CC12CC3CC(CC(C3)C1)C2` registered a drug sensitivity score of 7.6.

For `Cc1nn(C)c(COc2ccc(N3CCN(S(=O)(=O)N(C)C)CC3)cc2)c1-c1cccc2c(CCCOc3cccc4ccccc34)c(C(=O)O)n(CCN3CCOCC3)c12`, the drug sensitivity score worked out at 5.7.

In turn, `O=c1[nH]c(C2CCCN2)nc2c1oc1ccc(Cl)cc12` (configuration not stated) returned a drug sensitivity score of 0.2.

`COc1ccc(C[C@H](NC(=O)[C@H](C)NC(=O)CN2CCOCC2)C(=O)N[C@@H](Cc2ccccc2)C(=O)C2(C)CO2)cc1` (stereo in doubt) [ONX-0914] yielded a drug sensitivity score of 19.8.

With `CC/C(=C(\c1ccc(O)cc1)c1ccc(OCCN(C)C)cc1)c1ccccc1` [4-hydroxytamoxifen], the drug sensitivity score came out at 6.

`Nc1ncnc2c1nc(N)n2[C@@H]1O[C@H](CO)[C@@H](O)[C@H]1O` [8-amino-adenosine] displayed a drug sensitivity score of 20.1.

The compound `Nc1ncnc2c1nc(Cl)n2[C@@H]1O[C@H](CO)[C@@H](O)[C@H]1O` [8-chloro-adenosine] displayed a drug sensitivity score of 3.7.

Take `COc1cc2c(cc1OCCCN1CCCC1)N=C(N)C21CCC1` [A-366]: the drug sensitivity score came to 5.7.

Regarding `COc1ccc(S(=O)(=O)Nc2cccnc2Nc2ccc(O)cc2)cc1` [ABT-751], the drug sensitivity score was found to be 9.4.

On to `C[C@H](Nc1ncnc2[nH]cnc12)c1cc2ccc(F)cc2nc1-c1ccccn1` [AMG319], for which the drug sensitivity score turned out to be 0.

In turn, `COCCOc1cnc2ccn([C@H](C)c3nnc4c(F)cc(-c5cnn(C)c5)cn34)c(=O)c2c1` [AMG-337] registered a drug sensitivity score of 0.

For the compound `CC1CCC(n2c3cnccc3c3cnc(Nc4ccc5c(n4)CCN(C(=O)CO)C5)nc32)CC1` (configuration not stated) [AMG-925], the drug sensitivity score was 0.

In the case of `CC(C)[C@H](C(=O)Nc1ccc(C(=O)NO)cc1)c1ccccc1` [AR-42], the drug sensitivity score worked out at 12.8.

Compound `Cc1sc2c(c1C)C(c1ccc(Cl)cc1)=N[C@@H](CC(=O)Nc1ccc(OCCOCCOCCOCCNc3cccc4c3C(=O)N(C3CCC(=O)NC3=O)C4=O)cc1)c1nnc(C)n1-2` (some centres not stated) [ARV-825] gave a drug sensitivity score of 6.7.

As to `COc1cc(N2CCC(N3CCN(C)CC3)CC2)ccc1Nc1ncnc(Nc2ccccc2S(=O)(=O)C(C)C)n1` [ASP3026], the drug sensitivity score worked out at 5.2.

As to `O=C(NC1CCNCC1)c1n[nH]cc1NC(=O)c1c(Cl)cccc1Cl` [AT7519], the drug sensitivity score worked out at 14.2.

The compound `O=C(Nc1c[nH]nc1-c1nc2ccc(CN3CCOCC3)cc2[nH]1)NC1CC1` [AT9283] showed a drug sensitivity score of 2.6.

With `CC[C@H](CC#N)OC(=O)N[C@@H](C)c1cccc(NC(=O)Nc2ccc(-c3cnco3)c(OC)c2)c1` [AVN944], the drug sensitivity score was 12.7.

As to `COc1cc(N2CCN(C)CC2)ccc1Nc1nccc(-c2cn(C)c3cnccc23)n1` [AZ191], the drug sensitivity score was 5.9.

With `COc1cc(OC2CCN(C)CC2)ccc1Nc1ncc2c(n1)n(C1CCCC1)c(=O)n2C` [AZ 3146], the drug sensitivity score came out at 4.8.

On to `CN(C)CCCOc1ccc(-c2ccc3ncc4c(c3c2)n(C2CCOCC2)c(=O)n4C)cn1` [AZD0156], for which the drug sensitivity score came out at 1.1.

In turn, `N[C@@H]1CCCN(c2c(/C=C3\SC(=O)NC3=O)cccc2-c2ccccc2)C1` [AZD1208] came in with a drug sensitivity score of 0.3.

`Cc1cc(Nc2nc(N[C@@H](C)c3ncc(F)cn3)ncc2Cl)[nH]n1` [AZD1480] had a drug sensitivity score of 0.

Compound `COc1cc2ncnc(Nc3cccc(Cl)c3F)c2cc1OC(=O)N1CCN(C)C[C@H]1C` [AZD3759] displayed a drug sensitivity score of 0.

`Cc1[nH]nc(C(F)(F)F)c1Cc1sc2c(c1C(=O)N1C[C@](C)(O)CO1)c(=O)n(C)c(=O)n2C(C)C` [AZD3965] came in with a drug sensitivity score of 4.2.

The compound `COc1cc(CCc2cc(NC(=O)c3ccc(N4CC(C)NC(C)C4)cc3)n[nH]2)cc(OC)c1` (configuration not stated) [AZD4547] had a drug sensitivity score of 0.

`CN(C)C(=O)c1ccc(S(=O)(=O)c2ccc(NC(=O)[C@@](C)(O)C(F)(F)F)c(Cl)c2)cc1` [AZD7545] showed a drug sensitivity score of 0.

On to `NC(=O)Nc1cc(-c2cccc(F)c2)sc1C(=O)N[C@H]1CCCNC1` [AZD7762], for which the drug sensitivity score was determined as 6.4.
